Test results published in patent EP0840781B1, “METHODS AND DEVICES FOR THE REMOVAL OF PSORALENS FROM BLOOD PRODUCTS” (Cerus Corporation, priority 1995, dated 1996).
Marks after values point to notes of the source that are not given here.

Tests used:
[1] = system: H9 cells chronically infected with HIVIIIB; experiment: Inactivation of cell-associated HIV in platelet concentrate, HIV microplaque assay; format: cell-based; conditions: 150 µM in platelet concentrate; for logs of HIV inactivated (cell-associated): 3 Joules/cm^2, starting log titer 6.1 (Compound 2) or 6.6 (Compound 18); for log inactivation of HIV, dark control: no UVA
Procedure: H9 cells chronically infected with HIVIIIB were used. (H9/HTLV-III-B NIH 1983 Cat.#400). Cultures of these cells were maintained in high glucose Dulbecco Modified Eagle Medium supplemented with 2 mM L-glutamine, 200 u/mL penicillin, 200 µg/ml streptomycin, and 9% fetal bovine serum (Intergen Company, Purchase, N.Y.) For maintenance, the culture was split once a week, to a density of 3 x 10^5 to 4 x 10^5 cells/ml and about four days after splitting, 3.3% sodium bicarbonate was added as needed. For the inactivation procedure, the cells were used three days after they were split. They were pelleted from their culture medium at 400 g x 10 minutes, the supernatant was discarded, and the cells were resuspended in one to five day old human platelet concentrate (PC) (pH 7.5-6.5), to a concentration of 2 x 10^6 cells/ml. Aliquots of the PC-infected cell suspension were made for psoralen free dark controls, for psoralen free UVA only controls, for psoralen dark controls, and for the psoralen plus UVA experimental sample. Concentrated filter-sterilized stock solutions of each psoralen in water were diluted into the appropriate aliquots to yield a final concentration of 150 µM. […] After an equilibration period of thirty minutes at room temperature, 0.5 ml of each of the dark controls was placed in a cryovial and stored in the dark at -80° C. For UVA illumination, 8 ml of the psoralen free aliquot and 8 ml of each psoralen containing aliquot were introduced into a modified F1 20 Teflon™ bag (modified to be 92 cm^2 total surface area. The West Co., Phoenixvill, PA) via a plastic disposable 10 ml syringe attached to one of the polypropylne ports on the bag. This gave an average path length of 0.17 cm. The bags were then illuminated for a total exposure of 3 Joules/cm^2 in the device described in Example 1, above, attached to a circulating refrigerating water bath set at 4° C. which maintains the temperature in the bag at approximately 22-25° C. During exposure, the device was shaken on a platelet shaker (Helmer Labs, Noblesville, IN). After exposure, the contents of the bags were withdrawn by a fresh syringe through the remaining unused port on the bag, and placed in cryovials for storage in the dark at […] until analysis.
Clot removal from each sample was performed before plating.

platelets [2] = experiment: Platelet aggregation (ADP and collagen, aggregometer); format: cell-based, human; conditions: for (%) Aggregation: T = test unit (150 µM S-59, 3 Joules/cm^2 UVA, RD 8 hours on day 1)
Procedure: To measure the effects of the present compounds and methods of decontamination on platelet function using these four indicators, four samples were prepared for each compound tested, two control samples and two containing compound. […] These were each transferred under sterile conditions to 50 ml centrifuge tubes, then aliquots of each unit were transferred into a second set of 50 ml sterile centrifuge tubes. […] The samples were pipetted gently up and down to mix. […] Samples were treated in one of two different sized bags, having either 3 ml or 8 ml capacity. […] For each compound tested, two control samples without compound were prepared by again removing aliquots of platelet concentrate (17 ml if using an 8 ml bag, 4 ml if using a 3 ml bag) from the same one of the first set of 50 ml centrifuge tubes from which the compound sample was drawn, and dividing into Medibags, as before. […] Then all experimental and control Medibags were placed on a platelet shaker for storage for 5 days.

platelets [3] = experiment: ATP content / ATP secretion of platelets; format: cell-based, human; conditions: T = test unit (150 µM S-59, 3 Joules/cm^2 UVA, RD 8 hours on day 1)
Procedure: Samples were removed from the units after 24 hours and were analyzed for platelet count and pH. After 5 days, samples were taken and also analyzed for platelet count and pH, as well as ATP content and activation by GMP-140. Controls included a sample of PCD-treated PC without adsorbent (no-adsorbent control) and a sample of PC that was not treated. The results for each of the platelet function assays are present in Table G (the "*" In Table G indicates a contact time of three hours only). TABLE G
(§1) For the evaluation of in vitro platelet function, platelet samples were withdrawn from both the control and test units before treatment and after treatment on days 2, 5, and 7. The following parameters were analyzed: pH, pO2, pCO2, bicarbonate concentration, platelet count, morphology, aggregation, platelet shape change, hypotonic shock response, lactate production, glucose consumption, ATP secretion, p-selectin expression, and microvesicle formation. Several of these assays, including pH, morphology score, platelet shape change, and hypotonic shock response, have been reported in the literature to correlate with in- vivo post-transfusion recovery and survival. The Student's paired t-test was used for statistical analysis.

platelets [4] = experiment: Platelet morphology score; format: cell-based, human; conditions: T = test unit (150 µM S-59, 3 Joules/cm^2 UVA, RD 8 hours on day 1)
Procedure: as §1

platelets [5] = experiment: Platelet shape change; format: cell-based, human; conditions: T = test unit (150 µM S-59, 3 Joules/cm^2 UVA, RD 8 hours on day 1)
Procedure: Platelets are able to regain their ability to change shape following transfer from the RD and incubation in a PL 2410 Plastic container (Baxter) in an equal volume of autologous plasma.
as §1

platelets [6] = experiment: Hypotonic shock response (HSR) of platelets; format: cell-based, human; conditions: T = test unit (150 µM S-59, 3 Joules/cm^2 UVA, RD 8 hours on day 1)
Procedure: as §1

platelet concentrate = experiment: pO2, pCO2 and bicarbonate concentration of platelet concentrate; format: cell-based, human; conditions: T = test unit (150 µM S-59, 3 Joules/cm^2 UVA, RD 8 hours on day 1)
Procedure: In addition to the data summarized in Table E, measurements of pH, pO2, and pCO2 were taken over a five-day storage period. No significant differences between the treated and control units were observed. Finally, it should be noted that these experiments were performed with standard Amberlite™ resins (i.e., resins which were not treated by Supelco, Inc.).
as §1

platelets [7] = experiment: Microvesicle formation of platelets; format: cell-based, human; conditions: T = test unit (150 µM S-59, 3 Joules/cm^2 UVA, RD 8 hours on day 1)
Procedure: as §1

[8] = system: Chinese hamster ovary (CHO) cells; experiment: In vitro genotoxicity screen in CHO cells (toxic dose); format: cell-based; conditions: approximately 3 hours exposure in the dark, dilutions 1-1000 µg/ml
Text: The positive control was methylmethane sulfonate.
Coverslips were mounted with Permount.

Cc1cc(=O)oc2c(C)c3oc(COCCN)c(C)c3cc12 [Compound 18, 5'-(4-amino-2-oxa)butyl-4,4',8-trimethylpsoralen]
logs of HIV inactivated (cell-associated) [1]: > 7.2 logs | log inactivation of HIV, dark control [1]: 0 logs

Cc1oc2c(C)c3oc(=O)cc(C)c3cc2c1COCCN [Compound 2, 4'-(4-amino-2-oxa)butyl-4,5',8-trimethylpsoralen]
reduction in aggregation from the day 1 control (platelets [2]; 100 µM compound, 5 Joules/cm^2, 5 days storage (FIG. 21B)): approximately 8% | (%) Aggregation (platelets [2]; Day 2): 88±4% | (%) Aggregation (platelets [2]; Day 5): 81±7% | (%) Aggregation (platelets [2]; Day 7): 81±4% | logs of HIV inactivated (cell-associated) [1]: > 6.7 logs | log inactivation of HIV, dark control [1]: 0 logs | ATP (platelets [3]; Day 2): 1.0±0.1 Nmoles Per 10* Platelets | ATP (platelets [3]; Day 5): 0.7±0.2 Nmoles Per 10* Platelets | ATP (platelets [3]; Day 7): 0.6±0.2 Nmoles Per 10* Platelets | Morphology (Out Of 400) (platelets [4]; Day 2): 302±16 | Morphology (Out Of 400) (platelets [4]; Day 5): 290±20 | Morphology (Out Of 400) (platelets [4]; Day 7): 274±12 | Platelet Shape Change (platelets [5]; Day 2): 1.0±0.1 | Platelet Shape Change (platelets [5]; Day 5): 0.9±0.1 | Platelet Shape Change (platelets [5]; Day 7): 0.9±0.3 | (%) HSR (platelets [6]; Day 2): 52±5 % | (%) HSR (platelets [6]; Day 5): 45±3% | (%) HSR (platelets [6]; Day 7): 48±8% | Bicarbonate (platelet concentrate; Day 2): 6.3 ± 0.3 mM | pCO2 (platelet concentrate; Day 2): 29.2±3.8 mm Hg | pO2 (platelet concentrate; Day 2): 68.3±19.4 mm Hg | Bicarbonate (platelet concentrate; Day 5): 4.8 ± 0.5 mM | pCO2 (platelet concentrate; Day 5): 23.7±3.5 mm Hg | pO2 (platelet concentrate; Day 5): 84.8±22.5 mm Hg | Bicarbonate (platelet concentrate; Day 7): 4.2 ± 0.7 mM | pCO2 (platelet concentrate; Day 7): 20.7±2.4 mm Hg | pO2 (platelet concentrate; Day 7): 88.8±20.2 mm Hg | (%) Microvesicle Formation (platelets [7]; Day 2): 0.9±0.2% | (%) Microvesicle Formation (platelets [7]; Day 5): 0.8±0.2% | (%) Microvesicle Formation (platelets [7]; Day 7): 1.7±1.7%

Cc1oc2c(C)c3oc(=O)cc(C)c3cc2c1CN [AMT, 4'-Aminomethyl-4,5',8-trimethylpsoralen, reference compound]
genotoxic (toxic) dose [8]: 30 µg/mL
